Consider 14 compounds from ChEMBL document CHEMBL3098118, “Access to a new class of biologically active quinoline based 1,2,4-triazoles” (2014).

Converted amounts (≈) assume the structure as drawn.

What all share (format): functional
For one test, the system named is Bacillus cereus. Description: Antibacterial activity against Bacillus cereus MTCC 619 by agar streak dilution method.
In another test the test system is Pseudomonas aeruginosa. Put plainly: Antibacterial activity against Pseudomonas aeruginosa MTCC 741 by agar streak dilution method.
The next test deals with Escherichia coli. Description: Antibacterial activity against Escherichia coli MTCC 739 by agar streak dilution method.
The test system of a further test is Candida albicans. Put plainly: Antifungal activity against Candida albicans MTCC 183 by agar streak dilution method.
For a further test, the system named is Staphylococcus aureus. Put plainly: Antibacterial activity against Staphylococcus aureus MTCC 96 by agar streak dilution method.
The test system of a further test is Aspergillus niger. Description: Antifungal activity against Aspergillus niger MTCC 282 by agar streak dilution method.
For another test, the system named is Klebsiella pneumoniae. Description: Antibacterial activity against Klebsiella pneumoniae MTCC 109 by agar streak dilution method.

For the compound `N#Cc1ccc2nc(NC(=O)CSc3nnc(-c4ccc5ncccc5c4)n3-c3cccc4ccccc34)sc2c1`, the MIC in the test with Bacillus cereus came out at 200 mg/L (≈ 351 µM); with Pseudomonas aeruginosa, 100 mg/L (≈ 176 µM); in the test with Escherichia coli it was 50 mg/L (≈ 87.8 µM); with Candida albicans it was 6.25 mg/L (≈ 11 µM); against Staphylococcus aureus it was 500 mg/L (≈ 878 µM); against Aspergillus niger it was 100 mg/L (≈ 176 µM). In the test on Klebsiella pneumoniae, this compound yielded an MIC of 50 mg/L (≈ 87.8 µM).

For `O=C(CSc1nnc(-c2ccc3ncccc3c2)n1-c1cccc2ccccc12)Nc1nc2ccc(F)cc2s1`, the MIC against Bacillus cereus was 50 mg/L (≈ 88.9 µM); with Pseudomonas aeruginosa it was 100 mg/L (≈ 178 µM); in the test on Escherichia coli, 100 mg/L (≈ 178 µM); with Candida albicans, 50 mg/L (≈ 88.9 µM); in the test with Staphylococcus aureus, 25 mg/L (≈ 44.4 µM); against Aspergillus niger it was 25 mg/L (≈ 44.4 µM). In the test on Klebsiella pneumoniae, this compound had an MIC of 62.5 mg/L (≈ 111 µM).

In the case of `O=C(CSc1nnc(-c2ccc3ncccc3c2)n1-c1cccc2ccccc12)Nc1nc2ccc(Cl)cc2s1`, the MIC in the test on Bacillus cereus was found to be 100 mg/L (≈ 173 µM); with Pseudomonas aeruginosa, 200 mg/L (≈ 345 µM); with Escherichia coli, 100 mg/L (≈ 173 µM); in the test on Candida albicans it was 50 mg/L (≈ 86.3 µM); against Staphylococcus aureus, 200 mg/L (≈ 345 µM); against Aspergillus niger, 100 mg/L (≈ 173 µM). Further, in the test on Klebsiella pneumoniae, the minimum inhibitory concentration (MIC) is 62.5 mg/L (≈ 108 µM).

Consider `O=C(CSc1nnc(-c2ccc3ncccc3c2)n1-c1cccc2ccccc12)Nc1nc2ccc(I)cc2s1`, for which the MIC in the test on Bacillus cereus was determined as 200 mg/L (≈ 298 µM); in the test on Pseudomonas aeruginosa, 250 mg/L (≈ 373 µM); in the test on Escherichia coli it was 250 mg/L (≈ 373 µM); in the test with Candida albicans it was 62.5 mg/L (≈ 93.2 µM); against Staphylococcus aureus, 250 mg/L (≈ 373 µM); against Aspergillus niger it was 62.5 mg/L (≈ 93.2 µM). In the test on Klebsiella pneumoniae, this compound had an MIC of 100 mg/L (≈ 149 µM).

As to `CCOc1ccc2nc(NC(=O)CSc3nnc(-c4ccc5ncccc5c4)n3-c3cccc4ccccc34)sc2c1`, the MIC in the test with Bacillus cereus came to 100 mg/L (≈ 170 µM); in the test on Pseudomonas aeruginosa it was 25 mg/L (≈ 42.5 µM); against Escherichia coli it was 100 mg/L (≈ 170 µM); in the test with Candida albicans, 6.25 mg/L (≈ 10.6 µM); in the test with Staphylococcus aureus it was 200 mg/L (≈ 340 µM); with Aspergillus niger it was 12.5 mg/L (≈ 21.2 µM). Besides, the MIC in the test on Klebsiella pneumoniae amounted to 100 mg/L (≈ 170 µM).

For `OC(Cn1cncn1)(Cn1cncn1)c1ccc(F)cc1F` [FLUCONAZOLE], the MIC against Candida albicans is 12.5 mg/L (≈ 40.8 µM); in the test on Aspergillus niger, 6.25 mg/L (≈ 20.4 µM).

As to `CC(=O)Nc1ccc2nc(NC(=O)CSc3nnc(-c4ccc5ncccc5c4)n3-c3cccc4ccccc34)sc2c1`, the minimum inhibitory concentration (MIC) was 250 mg/L (≈ 415 µM) against Bacillus cereus; 62.5 mg/L (≈ 104 µM) in the test with Pseudomonas aeruginosa; 200 mg/L (≈ 332 µM) against Escherichia coli; 100 mg/L (≈ 166 µM) against Candida albicans; 500 mg/L (≈ 831 µM) against Staphylococcus aureus; 62.5 mg/L (≈ 104 µM) against Aspergillus niger. Further, 250 mg/L (≈ 415 µM) was the least that counted as inhibitory in the test on Klebsiella pneumoniae (MIC).

Consider `O=C(CSc1nnc(-c2ccc3ncccc3c2)n1-c1cccc2ccccc12)Nc1nc2ccc([N+](=O)[O-])cc2s1`, for which the MIC against Bacillus cereus amounted to 62.5 mg/L (≈ 106 µM); against Pseudomonas aeruginosa, 50 mg/L (≈ 84.8 µM); against Escherichia coli it was 50 mg/L (≈ 84.8 µM); with Candida albicans, 50 mg/L (≈ 84.8 µM); against Staphylococcus aureus, 200 mg/L (≈ 339 µM); in the test on Aspergillus niger, 6.25 mg/L (≈ 10.6 µM). Also, the lowest concentration to inhibit growth in the test with Klebsiella pneumoniae (MIC) was 50 mg/L (≈ 84.8 µM).

As for GENTAMICIN, the minimum inhibitory concentration (MIC) with Bacillus cereus came out at 6.25 mg/L; with Pseudomonas aeruginosa, 12.5 mg/L; against Escherichia coli, 12.5 mg/L; in the test on Staphylococcus aureus, 6.25 mg/L; with Klebsiella pneumoniae, 25 mg/L.

As for `Cc1ccc2nc(NC(=O)CSc3nnc(-c4ccc5ncccc5c4)n3-c3cccc4ccccc34)sc2c1`, the minimal inhibitory concentration (MIC) against Bacillus cereus is 250 mg/L (≈ 447 µM); in the test on Pseudomonas aeruginosa it was 100 mg/L (≈ 179 µM); against Escherichia coli, 200 mg/L (≈ 358 µM); in the test with Candida albicans, 200 mg/L (≈ 358 µM); with Staphylococcus aureus, > 500 mg/L; with Aspergillus niger, 50 mg/L (≈ 89.5 µM). In the test with Klebsiella pneumoniae, this compound came in with an MIC of 500 mg/L (≈ 895 µM).

On to `COc1ccc2nc(NC(=O)CSc3nnc(-c4ccc5ncccc5c4)n3-c3cccc4ccccc34)sc2c1`, for which the MIC in the test on Bacillus cereus was 100 mg/L (≈ 174 µM); against Pseudomonas aeruginosa, 50 mg/L (≈ 87 µM); with Escherichia coli, 62.5 mg/L (≈ 109 µM); in the test with Candida albicans, 25 mg/L (≈ 43.5 µM); in the test on Staphylococcus aureus, 100 mg/L (≈ 174 µM); in the test with Aspergillus niger, 6.25 mg/L (≈ 10.9 µM). Moreover, the MIC against Klebsiella pneumoniae was 62.5 mg/L (≈ 109 µM).

Regarding `O=C(CSc1nnc(-c2ccc3ncccc3c2)n1-c1cccc2ccccc12)Nc1nc2ccccc2s1`, the minimum inhibitory concentration (MIC) in the test on Bacillus cereus was 250 mg/L (≈ 459 µM); in the test with Pseudomonas aeruginosa, 500 mg/L (≈ 918 µM); with Escherichia coli, 250 mg/L (≈ 459 µM); against Candida albicans, 100 mg/L (≈ 184 µM); with Staphylococcus aureus, 500 mg/L (≈ 918 µM); with Aspergillus niger, 200 mg/L (≈ 367 µM). In the test on Klebsiella pneumoniae, it took 500 mg/L (≈ 918 µM) to inhibit growth (MIC).

`CC1(C)S[C@@H]2[C@H](NC(=O)[C@H](N)c3ccccc3)C(=O)N2[C@H]1C(=O)O` [AMPICILLIN]: the MIC with Bacillus cereus amounted to 12.5 mg/L (≈ 35.8 µM); in the test on Pseudomonas aeruginosa it was 25 mg/L (≈ 71.5 µM); in the test with Escherichia coli, 6.25 mg/L (≈ 17.9 µM); in the test with Staphylococcus aureus, 12.5 mg/L (≈ 35.8 µM); against Klebsiella pneumoniae, 25 mg/L (≈ 71.5 µM).

On to `O=C(CSc1nnc(-c2ccc3ncccc3c2)n1-c1cccc2ccccc12)Nc1nc2ccc(Br)cc2s1`, for which the MIC in the test with Bacillus cereus came out at 25 mg/L (≈ 40.1 µM); in the test with Pseudomonas aeruginosa, 100 mg/L (≈ 160 µM); against Escherichia coli, 62.5 mg/L (≈ 100 µM); in the test with Candida albicans, 25 mg/L (≈ 40.1 µM); against Staphylococcus aureus, 50 mg/L (≈ 80.2 µM); against Aspergillus niger, 50 mg/L (≈ 80.2 µM). Further, the minimal inhibitory concentration (MIC) in the test with Klebsiella pneumoniae was 100 mg/L (≈ 160 µM).

The MIC is the lowest concentration that inhibits growth of the organism.
